Assays:
[1] = humans
rOCT2 [2] = conditions: [14C]-tetraethylammonium accumulation via rOCT2; cited from earlier work
rMATE1 = conditions: cited from earlier work
[3] = rats, cited from earlier work
in vivo = conditions: rat, kidney, intravenous, 8 mg/kg
[4] = rats, assumed from human value; cited from earlier work
MATE1 = conditions: read-out: apparent Ki MATE1; cited from earlier work
rOCT2 [5] = conditions: read-out: Km rOCT2; cited from earlier work
[6] = humans, intravenous; cited from earlier work
[7] = cited from earlier work
[8] = rat plasma; cited from earlier work
[9] = molecular target: T1, N-acetyltransferase II (NAT-II) (Rattus norvegicus, UniProt P50298); assay: In vitro metabolic conversion of PA to NAPA in rat liver S9 fractions
T1 sequence (P50298 1-290): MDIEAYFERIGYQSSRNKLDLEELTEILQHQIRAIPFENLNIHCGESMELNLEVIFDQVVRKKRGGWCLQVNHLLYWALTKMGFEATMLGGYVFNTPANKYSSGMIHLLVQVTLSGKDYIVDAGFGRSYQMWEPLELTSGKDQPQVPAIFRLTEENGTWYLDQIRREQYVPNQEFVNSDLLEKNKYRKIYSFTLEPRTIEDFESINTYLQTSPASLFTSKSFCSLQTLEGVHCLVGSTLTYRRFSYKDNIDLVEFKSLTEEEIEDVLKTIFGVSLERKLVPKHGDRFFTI
Protocol: The mixture was preincubated at 37 °C for 5 min in a Multi-Therm Shaker (Benchmark Scientific, South Plainfield, NJ, USA) set at 200 oscillations per min. After preincubation, the reaction was started by adding 10 µL of 20 mM acetyl-CoA and vortex mixing. Upon collecting samples at 0 min and 30 min after initiation by pipetting out 50 µL of aliquot into an Eppendorf tube, the metabolic reaction was terminated by adding 100 µL of ice-cold methanol containing IS (200 ng/mL). […] After the preincubation of the mixture (37 °C for 5 min in Benchmark Multi-Therm Shaking Vortexer set at 200 oscillations per min), the reaction was initiated by adding 10 µL of 20 mM acetyl-CoA and vortex mixing. Samples (50 µL) were collected at predetermined times (0, 15, or 30 min after initiation) and ice-cold methanol (100 µL) containing IS (200 ng/mL) was added to terminate the reaction. All samples were vortex mixed and centrifuged at 12,000 g for 10 min at 4 °C. Finally, 70 µL aliquots of supernatants were transferred into vials and 2 µL was injected into the UHPLC system to determine the concentration of the formed metabolite, NAPA.

[10] = Systemic pharmacokinetics after intravenous administration in rats (noncompartmental analysis); conditions: rats
Protocol: After recovery from anesthesia, rats in both groups received intravenous bolus injections. […] To compensate for the loss of body fluid due to serial blood sampling, an identical volume of saline was intravenously replenished after each blood sampling.
Volumes of the urinary samples were measured, followed by 100-fold dilution of the samples (for urinary samples obtained from 0 to 8 h) or 50-fold dilution, with distilled deionized water. All samples were then stored at −80 °C until analysis.
In this study, conventional noncompartmental analyses were conducted using Winnonlin Professional 5.0.1 software (Pharsight Corporation, Mountain View, CA, USA) to calculate pharmacokinetic parameters [38], including area under the plasma concentration-time curve (AUC) from time zero to infinity (AUCinf), systemic clearance (CL), terminal phase half-life, mean residence time (MRT), and volume of distribution at steady state (VSS). In addition, parameters including the maximal concentration (Cmax) and the time to the Cmax of NAPA (Tmax) were also estimated.
Non-renal clearance (CLNR) was then determined by subtracting CLR from CL.

For CN/C(=N/CCSCc1nc[nH]c1C)NC#N [cimetidine, Cimetidine], the CLsec (CLR minus fup·GFR) was 4.76 mL/min/kg, the CLH (calculated) was 2.79 mL/min and the CLD1 (fitted, value (CV%)) was 17.6 (22.7) mL/min. The CLD2 (fitted, value (CV%)) was 2.96 (138) mL/min, the V1 (fitted, value (CV%)) was 125 (63.4) mL and the V2 (fitted, value (CV%)) was 200 (80.0) mL. For the same compound, the VC (fitted, value (CV%)) was 83.7 (6.78) mL, the “CLu,int,r” value (retrograde calculation) was 0.140 mL/min and the PSin (retrograde calculation) was 839 mL/min. For the same compound, the PSout (scaled from PAMPA permeability) was 74.1 mL/min, the “renal clearance relative to theoretical GFR” value [1] was 6.4 fold and the Ki (rOCT2 [2]) was 9.4 µM. The Ki (rMATE1; assumed equal to Km of cimetidine transport by rMATE1) was 3.01 µM, the Km (rMATE1; cimetidine transport mediated by rMATE1) was 3.01 µM and the “fraction of the dose excreted unchanged (fe)” value ([3]; 100 mg/kg) was 0.45. The kidney-to-plasma concentration ratio ([3]; 90 min after bolus injection of 8 mg/kg, regarded as Kp,ss) was 9.25, the Kp at 90 min (in vivo) was 10.3 and the “B/P ratio (R)” value [4] was 1. The Ki (MATE1) was 1.1 µM, the Km (rOCT2 [5]) was 71.5 µM and the renal clearance [6] was “approximately 9.25 mL/min/kg”. The PAMPA permeability [7] was 3.02 ×10⁻⁶ cm/s, the fup [8] was 0.836 and the IC50 [9] was 2060 ± 242 µM. It also gave an AUC(0-inf) ([10]; male, SD, rat, plasma, iv, 100 mg/kg, AUCinf, iv 100 mg/kg cimetidine) of 87000 ng·h/mL, a clearance ([10]; male, SD, rat, plasma, iv, 100 mg/kg, CL, iv 100 mg/kg cimetidine) of 20.3 ± 5.68 mL/min/kg and an MRT ([10]; male, SD, rat, plasma, iv, 100 mg/kg, MRT, iv 100 mg/kg cimetidine) of 1.35 h. The Vd ([10]; male, SD, rat, plasma, iv, 100 mg/kg, VSS, iv 100 mg/kg cimetidine) was 1.6 ± 0.318 L/kg, the half-life ([10]; male, SD, rat, plasma, iv, 100 mg/kg, t1/2β, iv 100 mg/kg cimetidine) was 2.27 ± 1.29 h and the “effective (free) concentration in the plasma” value ([10]; cimetidine 100 mg/kg) was “below 0.750 mM”.
